Assay [1] has as its target T1, TRβ (Homo sapiens, UniProt P10828).
T1 construct: expressed in transfected cells; host or cells: HEK293
T1 sequence (P10828 217-461 limits assumed): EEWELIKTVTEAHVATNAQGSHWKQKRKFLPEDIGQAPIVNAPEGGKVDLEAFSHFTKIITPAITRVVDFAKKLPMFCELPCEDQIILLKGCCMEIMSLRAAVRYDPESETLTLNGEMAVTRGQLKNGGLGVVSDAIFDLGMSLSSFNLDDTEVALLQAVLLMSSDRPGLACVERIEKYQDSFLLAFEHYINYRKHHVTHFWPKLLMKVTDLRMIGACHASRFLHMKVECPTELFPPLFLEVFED
Kind of assay: Thyroid-hormone reporter-gene assay, TRβ (Gal4 DBD hybrid, luciferase, HEK293). To be noted: for T3-SI, selectivity index (SI) calculated as EC50 (TRα)/EC50 (TRβ): TRβ over TRα selectivity from reporter-gene EC50 values; for EC50: reporter cells derived from HEK293, 24 hr incubation, luciferase readout. Format: cell-based.

In assay [2] the target is T2, TRα (Homo sapiens, UniProt P10827).
T2 construct: expressed in transfected cells; host or cells: HEK293
T2 sequence (P10827 128-410 isoform P10827-2 limits assumed): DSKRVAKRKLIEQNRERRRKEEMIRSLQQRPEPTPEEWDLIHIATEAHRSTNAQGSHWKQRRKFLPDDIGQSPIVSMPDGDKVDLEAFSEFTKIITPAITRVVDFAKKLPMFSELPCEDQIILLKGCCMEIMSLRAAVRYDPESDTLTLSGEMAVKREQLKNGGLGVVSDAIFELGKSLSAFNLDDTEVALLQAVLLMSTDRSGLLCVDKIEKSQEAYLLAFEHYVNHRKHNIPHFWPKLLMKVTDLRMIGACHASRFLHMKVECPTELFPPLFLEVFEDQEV
In words: Thyroid-hormone reporter-gene assay, TRα (Gal4 DBD hybrid, luciferase, HEK293). The settings on record: reporter cells derived from HEK293, 24 hr incubation, luciferase readout. Format: cell-based. As to the method:
Compounds were tested for thyroid-hormone receptor activity using TR reporter-gene assays. Reporter cells used in the assays express a TR-receptor hybrid (either TRα or TRβ) in which the native N-terminal DNA binding domain (DBD) has been replaced with that of the yeast Gal4 DBD. The reporter gene, firefly luciferase, is functionally linked to the Gal4 upstream activation sequence (UAS). Both cell lines were derived from human embryonic kidney (HEK293).
A suspension of reporter cells was prepared in cell recovery medium containing 10% charcoal-stripped FBS, and dispensed into assay plates. The plates were pre-incubated for 6 hours in a cell culture incubator (37° C./5% CO2/85% humidity).
These intermediate stocks were subsequently diluted directly into compound screening medium containing 10% charcoal-stripped FBS to generate “2×-concentration” treatment media (containing 0.2, 0.4 or 0.8% DMSO).
At the end of the pre-incubation period, culture media were discarded from the assay plates, and all wells received 100 μl of compound screening medium. 100 μl of each of the previously prepared “2×-concentration” treatment media were dispensed into duplicate assay wells, thereby achieving the desired final treatment concentrations. The final concentration of DMSO in all assay wells was 0.1, 0.2 or 0.4%. Assay plates were incubated for 24 hr in a cell culture incubator (37° C./5% CO2/85% humidity).
At the 24 h assay endpoint, treatment media were discarded and […] of luciferase detection reagent was added. Relative luminometer units (RLUs) were quantified from each assay well.

By EC50 is commonly meant the concentration giving half of the maximal effect. A lower EC50 goes with a more potent agent.

A value given as a limit tells only on which side of the number the result lay.

Take `Cc1cc(OCC(=O)O)cc(Cl)c1Cc1ccc(O)c(-c2cccc(OC(F)F)c2)c1` [Compound 62, 2-(3-chloro-4-((3′-(difluoromethoxy)-6-hydroxy-[1,1′-biphenyl]-3-yl)methyl)-5-methylphenoxy)acetic Acid]: the “T3-SI, selectivity index (SI) calculated as EC50 (TRα)/EC50 (TRβ)” value (shortened to “T3-SI, selectivity index (SI) calculated”) in assay [1] is listed as “++ (3X < T3-SI ≤ 30X)”. Further, the EC50 in assay [1] was 100 to 1000 nM; in assay [2], above 1000 nM.
In the same order, the values of `Cc1cc(OCC(=O)O)cc(Cl)c1Cc1ccc(O)c(-c2cccc(C(F)(F)F)c2)c1` [Compound 64, 2-(3-chloro-4-((6-hydroxy-3′-(trifluoromethyl)-[1,1′-biphenyl]-3-yl)methyl)-5-methylphenoxy)acetic Acid] are “++ (3X < T3-SI ≤ 30X)”, 100 to 1000 nM and 100 to 1000 nM.
In the same order, the values of `Cc1cc(OCC(=O)O)cc(Br)c1Cc1ccc(O)c(-c2cccc(OC(F)F)c2)c1` [Compound 66, 2-(3-bromo-4-((3′-(difluoromethoxy)-6-hydroxy-[1,1′-biphenyl]-3-yl)methyl)-5-methylphenoxy)acetic Acid] are “++ (3X < T3-SI ≤ 30X)”, 10 to 100 nM and 100 to 1000 nM.
In the same order, the values of `O=C(O)COc1cc(Cl)c(Cc2ccc(O)c(Cc3ccc(F)cc3)c2)c(Cl)c1` [Compound 70, 2-(3,5-dichloro-4-(3-(4-fluorobenzyl)-4-hydroxybenzyl)phenoxy)acetic Acid] are “+++ (T3-SI > 30X)”, 100 to 1000 nM and above 1000 nM.
Take `CC(c1ccc(F)cc1)c1cc(Cc2c(Cl)cc(OCC(=O)O)cc2Cl)ccc1O` (stereo not drawn) [Compound 73, 2-(3,5-dichloro-4-(3-(1-(4-fluorophenyl)ethyl)-4-hydroxybenzyl)phenoxy) acetic Acid]: in assay [1], the “T3-SI, selectivity index (SI) calculated” value is on record as “++ (3X < T3-SI ≤ 30X)” and the concentration giving a half-maximal response (EC50) lay in the range of 10 to 100 nM. The molecule also gave an EC50 in assay [2] of 10 to 100 nM.
For `O=C(O)COc1cc(Cl)c(Cc2ccc(O)c(Cc3ccncc3)c2)c(Cl)c1` [Compound 82, 2-(3,5-dichloro-4-(4-hydroxy-3-(pyridin-4-ylmethyl)benzyl)phenoxy) acetic Acid], the “T3-SI, selectivity index (SI) calculated” value in assay [1] is recorded as “++ (3X < T3-SI ≤ 30X)”. Besides, the EC50 in assay [1] and in assay [2] was above 1000 nM throughout.
`O=C(O)COc1cc(Cl)c(Cc2ccc(O)c(Cc3ccccc3F)c2)c(Cl)c1` [Compound 84, 2-(3,5-dichloro-4-(3-(2-fluorobenzyl)-4-hydroxybenzyl)phenoxy)acetic Acid]: the “T3-SI, selectivity index (SI) calculated” value in assay [1] is “++ (3X < T3-SI ≤ 30X)”. Moreover, the concentration for a half-maximal effect (EC50) in assay [1] and in assay [2] was above 1000 nM in each case.
As for `O=C(O)COc1cc(Cl)c(Cc2ccc(O)c(Cc3cccc(F)c3)c2)c(Cl)c1` [Compound 86, 2-(3,5-dichloro-4-(3-(3-fluorobenzyl)-4-hydroxybenzyl)phenoxy)acetic Acid], in assay [1], the “T3-SI, selectivity index (SI) calculated” value is listed as “++ (3X < T3-SI ≤ 30X)”. Also, the EC50 in assay [1] and in assay [2] was above 1000 nM in each case.
Take `O=C(O)COc1cc(Cl)c(Cc2ccc(O)c(Cc3ccc(F)cc3F)c2)c(Cl)c1` [Compound 88, 2-(3,5-dichloro-4-(3-(2,4-difluorobenzyl)-4-hydroxybenzyl)phenoxy)acetic Acid]: in assay [1], the “T3-SI, selectivity index (SI) calculated” value is recorded as “++ (3X < T3-SI ≤ 30X)” and the EC50 was in the range of 100 to 1000 nM. Also, in assay [2], the EC50 is 100 to 1000 nM.
For `O=C(O)COc1cc(Cl)c(Cc2ccc(O)c(Cc3ccc(Cl)cc3)c2)c(Cl)c1` [Compound 90, 2-(3,5-dichloro-4-(3-(4-chlorobenzyl)-4-hydroxybenzyl)phenoxy)acetic Acid], in assay [1], the “T3-SI, selectivity index (SI) calculated” value is listed as “++ (3X < T3-SI ≤ 30X)” and the EC50 was above 1000 nM. In addition, the EC50 in assay [2] was above 1000 nM.
Regarding `CCC(c1ccc(F)cc1)c1cc(Cc2c(Cl)cc(OCC(=O)O)cc2Cl)ccc1O` (stereo not drawn) [Compound 98, 2-(3,5-dichloro-4-(3-(1-(4-fluorophenyl)propyl)-4-hydroxybenzyl)phenoxy)acetic Acid], in assay [1], the “T3-SI, selectivity index (SI) calculated” value is on record as “++ (3X < T3-SI ≤ 30X)” and the EC50 lay in the range of 10 to 100 nM. Moreover, the concentration giving a half-maximal response (EC50) in assay [2] lay in the range of 100 to 1000 nM.
In the same order, the values of `CCCC(c1ccc(F)cc1)c1cc(Cc2c(Cl)cc(OCC(=O)O)cc2Cl)ccc1O` (stereo not drawn) [Compound 102, 2-(3,5-dichloro-4-(3-(1-(4-fluorophenyl)butyl)-4-hydroxybenzyl)phenoxy) acetic Acid] are “+++ (T3-SI > 30X)”, 100 to 1000 nM and above 1000 nM.
In the same order, the values of `CC(C)C(c1ccc(F)cc1)c1cc(Cc2c(Cl)cc(OCC(=O)O)cc2Cl)ccc1O` (stereo not drawn) [Compound 104, 2-(3,5-dichloro-4-(3-(1-(4-fluorophenyl)-2-methylpropyl)-4-hydroxybenzyl)phenoxy)acetic Acid] are “++ (3X < T3-SI ≤ 30X)”, 10 to 100 nM and 100 to 1000 nM.
In the case of `CC(C)(c1ccc(F)cc1)c1cc(Cc2c(Cl)cc(OCC(=O)O)cc2Cl)ccc1O` [Compound 105, 2-(3,5-dichloro-4-(3-(2-(4-fluorophenyl)propan-2-yl)-4-hydroxybenzyl)phenoxy)acetic Acid], in assay [1], the “T3-SI, selectivity index (SI) calculated” value is listed as “++ (3X < T3-SI ≤ 30X)” and the EC50 lay within 10 to 100 nM. For the same molecule, the EC50 in assay [2] fell in the range of 100 to 1000 nM.
As for `O=C(O)COc1cc(Cl)c(Cc2ccc(O)c(C(c3ccc(F)cc3)C3CC3)c2)c(Cl)c1` (stereo not drawn) [Compound 107, 2-(3,5-dichloro-4-(3-(cyclopropyl(4-fluorophenyl)methyl)-4-hydroxybenzyl)phenoxy)acetic Acid], in assay [1], the “T3-SI, selectivity index (SI) calculated” value is “++ (3X < T3-SI ≤ 30X)”. In addition, the EC50 in assay [1] lay in the range of 10 to 100 nM; in assay [2], 100 to 1000 nM.
In the same order, the values of `O=C(O)COc1cc(Cl)c(Cc2ccc(O)c(C(c3ccc(F)cc3)C3CCC3)c2)c(Cl)c1` (stereo not drawn) [Compound 109, 2-(3,5-dichloro-4-(3-(cyclobutyl(4-fluorophenyl)methyl)-4-hydroxybenzyl)phenoxy)acetic Acid] are “+++ (T3-SI > 30X)”, 100 to 1000 nM and above 1000 nM.
In the same order, the values of `O=C(O)COc1cc(Cl)c(Cc2ccc(O)c(C3CCCc4cc(F)ccc43)c2)c(Cl)c1` (stereo not drawn) [Compound 111, 2-(3,5-dichloro-4-(3-(6-fluoro-1,2,3,4-tetrahydronaphthalen-1-yl)-4-hydroxybenzyl)phenoxy)acetic Acid] are “++ (3X < T3-SI ≤ 30X)”, 100 to 1000 nM and 100 to 1000 nM.
In the same order, the values of `O=C(O)COc1cc(Cl)c(Cc2ccc(O)c(C3CCc4cc(F)ccc43)c2)c(Cl)c1` (stereo not drawn) [Compound 113, 2-(3,5-dichloro-4-(3-(5-fluoro-2,3-dihydro-1H-inden-1-yl)-4-hydroxybenzyl)phenoxy)acetic Acid] are “++ (3X < T3-SI ≤ 30X)”, above 1000 nM and above 1000 nM.
Consider `Cc1cc(OCC(=O)O)cc(Cl)c1Cc1ccc(O)c(Cc2ccc(F)cc2)c1` [Compound 115, 2-(3-chloro-4-(3-(4-fluorobenzyl)-4-hydroxybenzyl)-5-methylphenoxy) acetic Acid], for which the “T3-SI, selectivity index (SI) calculated” value in assay [1] is given as “++ (3X < T3-SI ≤ 30X)”. The 50% effective concentration (EC50) in assay [1] was in the range of 10 to 100 nM; in assay [2], 100 to 1000 nM.
For the molecule `O=C(O)COc1cc(Cl)c(Cc2ccc(O)c(Cc3ccoc3)c2)c(Cl)c1` [Compound 119, 2-(3,5-dichloro-4-(3-(furan-3-ylmethyl)-4-hydroxybenzyl)phenoxy)acetic Acid], in assay [1], the “T3-SI, selectivity index (SI) calculated” value is given as “++ (3X < T3-SI ≤ 30X)” and the half-maximal effective concentration (EC50) fell in the range of 100 to 1000 nM. The EC50 in assay [2] was above 1000 nM.
In the same order, the values of `O=C(O)COc1cc(Cl)c(Cc2ccc(O)c(Cc3ccsc3)c2)c(Cl)c1` [Compound 121, 2-(3,5-dichloro-4-(4-hydroxy-3-(thiophen-3-ylmethyl)benzyl)phenoxy) acetic Acid] are “++ (3X < T3-SI ≤ 30X)”, 100 to 1000 nM and above 1000 nM.

These data come from patent US11667606B2, “Thyromimetics” (Autobahn Therapeutics, Inc., priority 2019, dated 2023).
